Reference: patent US20090054421A1, “Pyrimidothiophene Compounds Having HSP90 Inhibitory Activity” (Vernalis R & D Limited, priority 2005, published 2009)

Biological target: T1, human full-length HSP90 (Homo sapiens, UniProt P08238)
T1 construct: E. coli expressed human full-length HSP90 protein, purified >95%; made in house; host or cells: E. coli
Assay: Fluorescence polarization assay (competitive displacement of fluorescein-labelled probe from HSP90)
Format: binding
Details: activity range A or B
Excerpt: Fluorescence Polarization Assay
Fluorescence polarization {also known as fluorescence anisotropy} measures the rotation of a fluorescing species in solution, where the larger molecule the more polarized the fluorescence emission. When the fluorophore is excited with polarized light, the emitted light is also polarized. The molecular size is proportional to the polarization of the fluorescence emission.
The fluoroscein-labelled probe—
binds to HSP90 {full-length human, full-length yeast or N-terminal domain HSP90} and the anisotropy {rotation of the probe:protein complex} is measured.
Test compound is added to the assay plate, left to equilibrate and the anisotropy measured again. Any change in anisotropy is due to competitive binding of compound to HSP90, thereby releasing probe.
Chemicals are of the highest purity commercially available and all aqueous solutions are made up in AR water. • 1) Costar 96-well black assay plate #3915 • 2) Assay buffer of (a) 100 mM Tris pH7.4; (b) 20 mM KCl; (c) 6 mM MgCl2. Stored at room temperature. • 3) BSA (bovine serum albumen) 10 mg/ml (New England Biolabs # B9001S) • 4) 20 mM probe in 100% DMSO stock concentration. Stored in the dark at RT. Working concentration is 200 nM diluted in AR water and stored at 4° C., Final concentration in assay 80 nM. • 5) E. coli expressed human full-length HSP90 protein, purified >95% (see, e.g., Panaretou et al., 1998) and stored in 50 μL aliquots at −80° C.
• 1) Add 100 μl 1× buffer to wells 11A and 12A (=FP BLNK) • 2) Prepare assay mix—all reagents are kept on ice with a lid on the bucket as the probe is light-sensitive.
• 3) Aliquot 100 μl assay mix to all other wells • 4) Seal plate and leave in dark at room temp for 20 minutes to equilibrate Compound Dilution Plate—1×3 dilution series • 1) In a clear 96-well v-bottom plate—{# VWR 007/008/257} add 10 μl 100% DMSO to wells B1 to H11 • 2) To wells A1 to A11 add 17.5 μl 100% DMSO • 3) Add 2.5 μl cpd to A1. This gives 2.5 mM {50×} stock cpd—assuming cpds 20 mM. • 4) Repeat for wells A2 to A10. Control in columns 11 and 12. • 5) Transfer 5 μl from row A to row B—not column 12. Mix well. • 6) Transfer 5 μl from row B to row C. […] In column 11 {provides standard curve} only add compound B11-H11. Add 2 μl of 100 mM standard cpd to wells B12-H12 {is positive control} • 13) The Z′ factor is calculated from zero controls and positive wells. It typically gives a value of 0.7-0.9.
The compounds tested in the above assay were assigned to one of two activity ranges, namely A=<10 μM; B=>10 μM, and those assignments are reported above.

T1 sequence (P08238 whole entry): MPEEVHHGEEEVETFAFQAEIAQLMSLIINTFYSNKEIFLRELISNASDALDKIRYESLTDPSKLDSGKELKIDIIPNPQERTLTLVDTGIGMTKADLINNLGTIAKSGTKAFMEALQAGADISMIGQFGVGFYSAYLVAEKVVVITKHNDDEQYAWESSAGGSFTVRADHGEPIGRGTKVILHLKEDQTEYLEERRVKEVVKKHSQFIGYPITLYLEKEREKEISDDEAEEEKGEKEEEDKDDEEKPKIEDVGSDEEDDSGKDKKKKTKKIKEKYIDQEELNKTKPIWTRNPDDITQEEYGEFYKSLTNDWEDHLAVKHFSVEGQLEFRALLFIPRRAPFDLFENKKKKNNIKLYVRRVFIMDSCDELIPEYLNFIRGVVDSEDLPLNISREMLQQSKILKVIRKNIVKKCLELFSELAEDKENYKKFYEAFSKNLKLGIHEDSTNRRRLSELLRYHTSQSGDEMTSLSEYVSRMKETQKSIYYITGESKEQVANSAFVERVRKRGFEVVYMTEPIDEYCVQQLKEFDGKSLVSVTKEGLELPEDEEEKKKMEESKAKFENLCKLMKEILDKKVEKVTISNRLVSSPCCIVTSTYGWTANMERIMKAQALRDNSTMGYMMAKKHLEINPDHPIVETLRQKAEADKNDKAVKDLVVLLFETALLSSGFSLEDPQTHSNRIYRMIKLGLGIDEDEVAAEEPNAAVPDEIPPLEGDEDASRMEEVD

| Compound | IC50 [µM] |
| --- | --- |
| CCNC(=O)c1cc2c(C(=NO)c3ccccn3)nc(N)nc2s1 [Example 5] | < 10 |
| CCNC(=O)c1cc2c(C(=NOCCN(CC)CC)c3ccc(OC)c(OC)c3)nc(N)nc2s1 [Example 62] | < 10 |
| CCNC(=O)c1cc2c(C(=NO)c3ccc4[nH]ccc4c3)nc(N)nc2s1 [Example 18] | < 10 |
| CCNC(=O)c1cc2c(C(=NOCCN(CC)CC)c3ccc(N4CCCC4=O)cc3)nc(N)nc2s1 [Example 73] | > 10 |
| CCNC(=O)c1cc2c(C(=NOCCN3CCCC3)c3ccc4c(c3)OCO4)nc(N)nc2s1 (mixture of isomers) [Example 28] | < 10 |
| CCNC(=O)c1cc2c(C(=NOCCN3CCCC3)c3ccc(-n4cccc4)cc3)nc(N)nc2s1 [Example 68] | > 10 |
| CCNC(=O)c1cc2c(C(=NOCCN(CC)CC)c3cccc(OC)c3)nc(N)nc2s1 [Example 31] | < 10 |
| COCCNC(=O)c1cc2c(C(=NOCCN3CCCC3=O)c3ccc4c(c3)OCO4)nc(N)nc2s1 (mixture of isomers) [Example 57] | < 10 |
| Nc1nc(C(=NO)c2ccc3c(c2)OCO3)c2cc(C(=O)NC3CC3)sc2n1 [Example 20, 2-Amino-4-(benzo[1,3]dioxol-5-yl-hydroxyimino-methyl)-thieno[2,3-d]pyrimidine-6-carboxylic acid cyclopropylamide] | < 10 |
| Nc1nc(C(=NOCCN2CCCC2=O)c2ccc3c(c2)OCO3)c2cc(C(=O)NCC(F)(F)F)sc2n1 [Example 76] | < 10 |
| CCNC(=O)c1cc2c(C(=NO)c3cccs3)nc(N)nc2s1 [Example 50] | < 10 |
| CCOC(=O)c1cc2c(C(=NOC)c3ccc4c(c3)OCO4)nc(N)nc2s1 [Example 4, 2-Amino-4-(benzo[1,3]dioxol-5-yl-methoxyimino-methyl)-thieno[2,3-d]pyrimidine-6-carboxylic acid ethyl ester] | < 10 |
| CN(C)CCNC(=O)c1cc2c(C(=NOCCN3CCCC3=O)c3ccc4c(c3)OCO4)nc(N)nc2s1 [Example 64] | > 10 |
| CCNC(=O)c1cc2c(C(=NOC)c3ccc4c(c3)OCCN4C)nc(N)nc2s1 (mixture of isomers) [Example 1, 2-Amino-4-[methoxyimino-(4-methyl-3,4-dihydro-2H-benzo[1,4]oxazin-7-yl)-methyl]-thieno[2,3-d]pyrimidine-6-carboxylic acid ethylamide] | < 10 |
| Nc1nc(C(=NO)c2ccc3c(c2)OCO3)c2cc(C(=O)NCC(F)(F)F)sc2n1 [Example 25] | < 10 |
| CN(C)CCNC(=O)c1cc2c(C(=NO)c3ccc4c(c3)OCO4)nc(N)nc2s1 [Example 24] | < 10 |
| CCNC(=O)c1cc2c(C(=NOCCN3CCCC3=O)c3ccc(N4CCCC4=O)cc3)nc(N)nc2s1 [Example 77] | < 10 |
| CCNC(=O)c1cc2c(C(=NOCCN(CC)CC)c3cccs3)nc(N)nc2s1 [Example 38] | > 10 |
| CCNC(=O)c1cc2c(C(=NO)c3ccc(Cl)cc3)nc(N)nc2s1 [Example 10] | < 10 |
| CCNC(=O)c1cc2c(C(=NOCCN3CCCC3=O)c3ccc(-n4cccc4)cc3)nc(N)nc2s1 [Example 71] | > 10 |
| CCNC(=O)c1cc2c(C(=NO)c3ccc4c(c3)CCO4)nc(N)nc2s1 [Example 16] | < 10 |
| COCCNC(=O)c1cc2c(C(=NOCCN3CCCC3)c3ccc4c(c3)OCO4)nc(N)nc2s1 [Example 53] | < 10 |
| CC(C)NC(=O)c1cc2c(C(=NOCCN3CCCC3=O)c3ccc4c(c3)OCO4)nc(N)nc2s1 (mixture of isomers) [Example 46] | < 10 |
| CCNC(=O)c1cc2c(C(=NO)c3cccc(OC)c3)nc(N)nc2s1 [Example 9] | < 10 |
| Nc1nc(C(=NOCCN2CCCC2=O)c2ccc3c(c2)OCO3)c2cc(C(=O)NC3CC3)sc2n1 [Example 61] | < 10 |

| Compound | IC50 [µM] |
| --- | --- |
| CCNC(=O)c1cc2c(C(=NOCCN(CC)CC)c3ccco3)nc(N)nc2s1 [Example 41] | < 10 |
| CCN(CC)CCON=C(c1ccc2c(c1)OCO2)c1nc(N)nc2sc(C(=O)NC3CC3)cc12 [Example 59] | < 10 |
| CCNC(=O)c1cc2c(C(=NO)c3ccncc3)nc(N)nc2s1 [Example 51] | > 10 |
| Nc1nc(C(=NOCCN2CCCC2)c2ccc3c(c2)OCO3)c2cc(C(=O)NC3CC3)sc2n1 [Example 60] | < 10 |
| CCNC(=O)c1cc2c(C(=NOCCN3CCCC3=O)c3ccco3)nc(N)nc2s1 [Example 47] | < 10 |
| CCNC(=O)c1cc2c(C(=NOCCN(CC)CC)c3ccc(-n4cccc4)cc3)nc(N)nc2s1 [Example 70] | > 10 |
| CCNC(=O)c1cc2c(C(=NOCCN(CC)CC)c3ccc4c(c3)OCO4)nc(N)nc2s1 [Example 26, 2-Amino-4-(benzo[1,3]dioxol-5-yl-(2-diethylamino-ethoxyimino)-methyl]-thieno[2,3-d]pyrimidine-6-carboxylic acid ethylamide] | < 10 |
| CN(C)CCCNC(=O)c1cc2c(C(=NO)c3ccc4c(c3)OCO4)nc(N)nc2s1 [Example 23] | < 10 |
| CC(C)(C)NC(=O)c1cc2c(C(=NO)c3ccc4c(c3)OCO4)nc(N)nc2s1 [Example 21] | < 10 |
| CCNC(=O)c1cc2c(C(=NOCCN3CCCC3)c3ccc(N4CCCC4=O)cc3)nc(N)nc2s1 [Example 72] | < 10 |
| CCNC(=O)c1cc2c(C(=NOCCN3CCCC3=O)c3ccc4c(c3)OCO4)nc(N)nc2s1 (mixture of isomers) [Example 29] | < 10 |
| CCNC(=O)c1cc2c(C(=NO)c3ccco3)nc(N)nc2s1 [Example 17] | < 10 |
| CCNC(=O)c1cc2c(C(=NOCCN(CC)CC)c3ccc(OC)cc3)nc(N)nc2s1 [Example 33] | < 10 |
| CCN(CC)CCON=C(c1ccc2c(c1)OCO2)c1nc(N)nc2sc(C(=O)NCCN(C)C)cc12 [Example 65] | > 10 |
| CCNC(=O)c1cc2c(C(=NOCCN(CC)CC)c3ccc4c(c3)OCCO4)nc(N)nc2s1 [Example 32] | < 10 |
| CCNC(=O)c1cc2c(C(=NOCCN(CC)CC)c3ccco3)nc(N)nc2s1 [Example 37] | > 10 |
| CCNC(=O)c1cc2c(C(=NO)c3ccc4c(c3)OCO4)nc(N)nc2s1 [Example 3, 2-Amino-4-(benzo[1,3]dioxol-5-yl-hydroxyimino-methyl)-thieno[2,3-d]pyrimidine-6-carboxylic acid ethylamide] | < 10 |
| CCNC(=O)c1cc2c(C(=NO)c3ccc4c(c3)OCCN4C)nc(N)nc2s1 (mixture of isomers) [Example 2, 2-Amino-4-[hydroxyimino-(4-methyl-3,4-dihydro-2H-benzo[1,4]oxazin-7-yl)-methyl]-thieno[2,3-d]pyrimidine-6-carboxylic acid ethylamide] | < 10 |
| CC(C)(C)NC(=O)c1cc2c(C(=NOCCN3CCCC3)c3ccc4c(c3)OCO4)nc(N)nc2s1 (mixture of isomers) [Example 54] | < 10 |
| CCNC(=O)c1cc2c(C(=NOCCN3CCCC3)c3ccc(-n4cccn4)cc3)nc(N)nc2s1 [Example 69] | > 10 |
| CCNC(=O)c1cc2c(C(=NOCCN(CC)CC)c3ccncc3)nc(N)nc2s1 [Example 42] | > 10 |
| CC(C)NC(=O)c1cc2c(C(=NOCCN3CCCC3)c3ccc4c(c3)OCO4)nc(N)nc2s1 [Example 45] | < 10 |
| CCNC(=O)c1cc2c(C(=NOCCN3CCCC3=O)c3ccc(-n4cccn4)cc3)nc(N)nc2s1 [Example 67] | < 10 |
| CCNC(=O)c1cc2c(C(=NO)c3ccc(-n4cccc4)cc3)nc(N)nc2s1 [Example 80] | < 10 |
